Measurements as given in patent US8183262B2, “Pyridine derivatives as mGluR2 antagonists” (Hoffmann-La Roche Inc., priority 2007, dated 2012).

| melting point | SMILES |
| --- | --- |
| 235 °C (dec.) | Cc1cc(-c2ccc(C(F)(F)F)cc2)cc(-c2cncc(-c3cccc(S(N)(=O)=O)c3)c2)n1 [Example 295, 3-[6-Methyl-4-(4-trifluoromethyl-phenyl)-[2,3′]bipyridinyl-5′-yl]-benzenesulfonamide] |
| > 250 °C | NS(=O)(=O)c1cccc(-c2cn(-c3cc(-c4ccc(C(F)(F)F)cc4)cc(C(F)(F)F)n3)cn2)c1 [Example 296, 3-{1-[6-Trifluoromethyl-4-(4-trifluoromethyl-phenyl)-pyridin-2-yl]-1H-imidazol-4-yl}-benzenesulfonamide] |
| 189 °C | Cc1cc(-c2ccc(C(F)(F)F)cc2)nc(-c2ccnc(-c3cccc(S(=O)(=O)NC(C)(C)C)c3)c2)c1 [Example 297, N-tert-Butyl-3-[4-methyl-6-(4-trifluoromethyl-phenyl)-[2,4′]bipyridinyl-2′-yl]-benzenesulfonamide] |
| 162 °C (dec.) | Cc1cc(-c2ccc(C(F)(F)F)cc2)cc(-c2ccnc(-c3cccc(N)c3)c2)n1 [Example 307, 3-[6-Methyl-4-(4-trifluoromethyl-phenyl)-[2,4′]bipyridinyl-2′-yl]-phenylamine] |
| > 250 °C | Cc1cc(-c2ccc(C(F)(F)F)cc2)nc(-c2ccnc(-c3cccc(S(N)(=O)=O)c3)n2)c1 [Example 308, 3-{4-[4-Methyl-6-(4-trifluoromethyl-phenyl)-pyridin-2-yl]-pyrimidin-2-yl}-benzenesulfonamide] |
| 238 °C | Cc1cc(-c2ccc(C(F)(F)F)cc2)nc(-c2ccnc(-c3cccc(S(N)(=O)=O)c3)c2)c1 [Example 309, 3-[4-Methyl-6-(4-trifluoromethyl-phenyl)-[2,4′]bipyridinyl-2′-yl]-benzenesulfonamide] |
| 229 °C | Cc1cc(-c2ccc(C(F)(F)F)cc2)nc(-c2cccc(-c3cccc(S(N)(=O)=O)c3)n2)c1 [Example 310, 3-[4′-Methyl-6′-(4-trifluoromethyl-phenyl)-[2,2′]bipyridinyl-6-yl]-benzenesulfonamide] |
| > 250 °C | Cc1cc(-c2ccc(C(F)(F)F)cc2)cc(-c2ccnc(-c3ccc(S(N)(=O)=O)s3)c2)n1 [Example 316, 5-[6-Methyl-4-(4-trifluoromethyl-phenyl)-[2,4′]bipyridinyl-2′-yl]-thiophene-2-sulfonic acid amide] |
| 243 °C (dec.) | Cc1cc(-c2ccc(C(F)(F)F)cc2)cc(-c2cccc(-c3ccc(S(N)(=O)=O)s3)n2)n1 [Example 317, 5-[6′-Methyl-4′-(4-trifluoromethyl-phenyl)-[2,2′]bipyridinyl-6-yl]-thiophene-2-sulfonic acid amide] |
| 97 °C (dec.) | NS(=O)(=O)c1ccc(-c2cc(-c3cc(C(F)(F)F)cc(-c4ccc(C(F)(F)F)cc4)n3)ccn2)s1 [Example 321, 5-[4-Trifluoromethyl-6-(4-trifluoromethyl-phenyl)-[2,4′]bipyridinyl-2′-yl]-thiophene-2-sulfonic acid amide] |
| 228 °C (dec.) | Cc1cc(-c2ccc(C(F)(F)F)cc2)nc(-c2ccnc(-c3ccc(S(N)(=O)=O)s3)c2)c1 [Example 323, 5-[4-Methyl-6-(4-trifluoromethyl-phenyl)-[2,4′]bipyridinyl-2′-yl]-thiophene-2-sulfonic acid amide] |
| 167 °C | Cc1cc(-c2ccc(C(F)(F)F)cc2)cc(-c2cccc(-c3cccc(N)c3)n2)n1 [Example 327, 3-[6′-Methyl-4′-(4-trifluoromethyl-phenyl)-[2,2′]bipyridinyl-6-yl]-phenylamine] |
| 233 °C (dec.) | COc1cc(-c2cc(C)nc(-c3ccnc(-c4cccc(S(N)(=O)=O)c4)c3)c2)ccc1C(F)(F)F [Example 340, 3-[4-(3-Methoxy-4-trifluoromethyl-phenyl)-6-methyl-[2,4′]bipyridinyl-2′-yl]-benzenesulfonamide] |
| 156 °C (dec.) | Cc1cc(-c2ccc(C(F)(F)F)cc2)cc(-c2ccnc(-c3cccc(S(=O)(=O)N4CCSCC4)c3)c2)n1 [Example 347, 6-Methyl-2′-[3-(thiomorpholine-4-sulfonyl)-phenyl]-4-(4-trifluoromethyl-phenyl)-[2,4′]bipyridinyl] |

Further lines, the molecule ahead of its results:

| SMILES | melting point |
| --- | --- |
| CC(C)(CO)NS(=O)(=O)c1cccc(-c2cn(-c3cc(C(F)(F)F)cc(-c4ccc(C(F)(F)F)cc4)n3)cn2)c1 [Example 291, N-(2-Hydroxy-1,1-dimethyl-ethyl)-3-{1-[4-trifluoromethyl-6-(4-trifluoromethyl-phenyl)-pyridin-2-yl]-1H-imidazol-4-yl}-benzenesulfonamide] | 150 °C (dec.) |
| Cc1nc(-c2cn(-c3cc(-c4ccc(C(F)(F)F)cc4)cc(C(F)(F)F)n3)cn2)sc1S(=O)(=O)NC(C)(C)C [Example 300, 4-Methyl-2-{1-[6-trifluoromethyl-4-(4-trifluoromethyl-phenyl)-pyridin-2-yl]-1H-imidazol-4-yl}-thiazole-5-sulfonic acid tert-butylamide] | 260 °C |
| CC(C)(C)NS(=O)(=O)c1ccc(-c2cn(-c3cc(-c4ccc(C(F)(F)F)cc4)cc(C(F)(F)F)n3)cn2)s1 [Example 301, 5-{1-[6-Trifluoromethyl-4-(4-trifluoromethyl-phenyl)-pyridin-2-yl]-1H-imidazol-4-yl}-thiophene-2-sulfonic acid tert-butylamide] | > 250 °C |
| CC(C)(C)NS(=O)(=O)c1cnc(-c2cn(-c3cc(-c4ccc(C(F)(F)F)cc4)cc(C(F)(F)F)n3)cn2)s1 [Example 302, 2-{1-[6-Trifluoromethyl-4-(4-trifluoromethyl-phenyl)-pyridin-2-yl]-1H-imidazol-4-yl}-thiazole-5-sulfonic acid tert-butylamide] | 252 °C |
| Cc1cc(-c2ccc(C(F)(F)F)cc2)cc(-c2ccnc(-c3ccc(S(=O)(=O)NC(C)(C)C)s3)n2)n1 [Example 303, 5-{4-[6-Methyl-4-(4-trifluoromethyl-phenyl)-pyridin-2-yl]-pyrimidin-2-yl}-thiophene-2-sulfonic acid tert-butylamide] | 242 °C (dec.) |
| Cc1cc(-c2ccc(C(F)(F)F)cc2)cc(-c2ccnc(-c3ccc(S(=O)(=O)NC(C)(C)C)s3)c2)n1 [Example 304, 5-[6-Methyl-4-(4-trifluoromethyl-phenyl)-[2,4′]bipyridinyl-2′-yl]-thiophene-2-sulfonic acid tert-butylamide] | 225 °C |
| Cc1cc(-c2ccc(C(F)(F)F)cc2)cc(-c2cccc(-c3ccc(S(=O)(=O)NC(C)(C)C)s3)n2)n1 [Example 305, 5-[6′-Methyl-4′-(4-trifluoromethyl-phenyl)-[2,2′]bipyridinyl-6-yl]-thiophene-2-sulfonic acid tert-butylamide] | 227 °C |
| Cc1nc(-c2cn(-c3cc(-c4ccc(C(F)(F)F)cc4)cc(C(F)(F)F)n3)cn2)sc1S(N)(=O)=O [Example 312, 4-Methyl-2-{1-[6-trifluoromethyl-4-(4-trifluoromethyl-phenyl)-pyridin-2-yl]-1H-imidazol-4-yl}-thiazole-5-sulfonic acid amide] | 170 °C (dec.) |
| NS(=O)(=O)c1ccc(-c2cn(-c3cc(-c4ccc(C(F)(F)F)cc4)cc(C(F)(F)F)n3)cn2)s1 [Example 314, 5-{1-[6-Trifluoromethyl-4-(4-trifluoromethyl-phenyl)-pyridin-2-yl]-1H-imidazol-4-yl}-thiophene-2-sulfonic acid amide] | 237 °C (dec.) |
| Cc1cc(-c2ccc(C(F)(F)F)cc2)cc(-c2ccnc(-c3ccc(S(N)(=O)=O)s3)n2)n1 [Example 315, 5-{4-[6-Methyl-4-(4-trifluoromethyl-phenyl)-pyridin-2-yl]-pyrimidin-2-yl}-thiophene-2-sulfonic acid amide] | > 250 °C |
| CC(C)(C)NS(=O)(=O)c1ccc(-c2cc(-c3cc(C(F)(F)F)cc(-c4ccc(C(F)(F)F)cc4)n3)ccn2)s1 [Example 319, 5-[4-Trifluoromethyl-6-(4-trifluoromethyl-phenyl)-[2,4′]bipyridinyl-2′-yl]-thiophene-2-sulfonic acid tert-butylamide] | 220 °C |
| Cc1cc(-c2ccc(C(F)(F)F)cc2)cc(-c2nc(-c3ccc(S(=O)(=O)NC(C)(C)C)s3)cs2)n1 [Example 324, 5-{2-[6-Methyl-4-(4-trifluoromethyl-phenyl)-pyridin-2-yl]-thiazol-4-yl}-thiophene-2-sulfonic acid tert-butylamide] | 171 °C |
| Cc1cc(-c2ccc(C(F)(F)F)cc2)cc(-c2ccnc(-c3cccc(N)c3)n2)n1 [Example 326, 3-{4-[6-Methyl-4-(4-trifluoromethyl-phenyl)-pyridin-2-yl]-pyrimidin-2-yl}-phenylamine] | 167 °C |
| COc1cc(-c2cc(C)nc(-c3ccnc(-c4cccc(S(=O)(=O)NC(C)(C)C)c4)c3)c2)ccc1C(F)(F)F [Example 336, N-tert-Butyl-3-[4-(3-methoxy-4-trifluoromethyl-phenyl)-6-methyl-[2,4′]bipyridinyl-2′-yl]-benzenesulfonamide] | 189 °C |
| COc1cc(-c2cc(C)nc(-c3ccnc(-c4ccc(S(=O)(=O)NC(C)(C)C)s4)c3)c2)ccc1C(F)(F)F [Example 339, 5-[4-(3-Methoxy-4-trifluoromethyl-phenyl)-6-methyl-[2,4′]bipyridinyl-2′-yl]-thiophene-2-sulfonic acid tert-butylamide] | 209 °C (dec.) |
| COc1cc(-c2cc(C)nc(-c3ccnc(-c4ccc(S(N)(=O)=O)s4)c3)c2)ccc1C(F)(F)F [Example 341, 5-[4-(3-Methoxy-4-trifluoromethyl-phenyl)-6-methyl-[2,4′]bipyridinyl-2′-yl]-thiophene-2-sulfonic acid amide] | 261 °C (dec.) |
| Cc1cc(-c2ccc(C(F)(F)F)cc2)cc(-c2cccc(-c3csc(N)n3)c2)n1 [Example 342, 4-{3-[6-Methyl-4-(4-trifluoromethyl-phenyl)-pyridin-2-yl]-phenyl}-thiazol-2-ylamine] | > 250 °C |
| Cc1cc(-c2ccc(C(F)(F)F)cc2)cc(-c2cccc(-c3csc(NS(=O)(=O)NC(=O)OC(C)(C)C)n3)c2)n1 [Example 344, N-(tert-Butoxycarbonyl)-N′-(4-{3-[6-methyl-4-(4-trifluoromethyl-phenyl)-pyridin-2-yl]-phenyl}-thiazol-2-yl)-sulfamide] | 152 °C (dec.) |
